According to patent US12668610B2, “Compounds for drug delivery across blood-brain barrier” (University of Houston System, priority 2020, dated 2026):
Numbered stars: 1 amine (or outer) side, 2 acyl side, 3 side chain; on linkers, the order of the positions; unused ones are H or OH. Square brackets hold non-standard residues; d marks the D form. Peptide text beside a SMILES is read from it. N((CH2)3OiPr)Gly = CC(C)OCCCNCC(=O)O; X1 = CC(c1ccccc1)N(CC(=O)[*:2])[*:1]; Nleu = CC(C)CNCC(=O)O; Nlys = NCCCCNCC(=O)O; Nme = COCCNCC(=O)O

Key:
transferrin receptor = target: T1, transferrin receptor (Homo sapiens, UniProt P02786); experiment: In vitro pull-down assay with compound-conjugated beads and western blot; assay type: binding; details: lysates of transferrin receptor positive or negative HeLa cells, compound-conjugated beads, 4° C. overnight, western blot anti-hTfR
T1 construct: Cell lysates from HeLa cells with transferrin receptor expression or transferrin receptor knockdown were extracted using RIPA buffer; endogenous in cells; host or cells: HeLa (ATCC)
Description: The binding of three exemplary compounds to the transferrin receptor was confirmed in a pull-down assay. Cell lysates from transferrin receptor positive or negative HeLa cells were extracted using RIPA buffer, and subsequently incubated with TRBP3, TRBP5, or TRBP6 conjugated beads at 4° C. overnight. The beads were then washed with RIPA buffer for 3 times, and the binding proteins were eluted with 1% SDS. The yielded lysates were then applied onto 10% SDS-PAGE gel and subjected to western blotting analysis with antibody against transferrin receptor.
Cell lysates from HeLa cells with transferrin receptor expression or transferrin receptor knockdown were extracted using RIPA buffer (Alfa Aesar) supplemented with protease inhibitors (Roche), and subsequently incubated with TRBP6, TRBP3, and TRBP5 conjugated beads at 4° C. overnight. The beads were then washed with RIPA buffer for 3 times, and the binding proteins were eluted with 1% SDS at 95° C. for 5 mins. The yielded lysates were then mixed with 4× Laemmli Sample Buffer (loading buffer) (Bio-Rad). […]
Cells were lysed in RIPA buffer (1% NP-40, 0.5% sodium deoxycholate, 0.1% SDS in PBS). […] Protein concentration was determined by Bio-Rad DC protein assay (Bio-Rad). […] Signals of targeted proteins were detected by the Immun-Star HRP peroxide Luminol/Enhancer (Bio-Rad) and recorded on ChemiDoc Touch Imaging System (Bio-Rad). […]

[1] = Stability in human plasma (HPLC); assay type: in vitro ADME; details: 37° C.
Description: (§1) HPLC Analysis. RP-HPLC was conducted on an LC-20A liquid chromatographic system (Shimadzu, Japan). In detail, the HPLC system consisted of a Shimadzu LC-20AD solvent delivery pump, a SIL-20A auto-sampler, and a Shimadzu SPD-M20A UV/Vis detector. The TRBP-6 peptoid was analyzed using a Phenomenex® HPLC C18 column (250×4.6 mm, 5 μm) at room temperature. The mobile phase was composed of solvent A (0.1% TFA in water) and solvent B (0.1% TFA in acetonitrile, TFA: trifluoroacetic acid). An aliquot of 10 μl of TRBP-6 peptoid solution (350 μg/ml in ACN:H2O, 1:1) was injected into HPLC system. An isocratic method with flow rate of 1 ml/min was applied in 30% B for 15 min for TRBP-6. The detection wavelength was set to 220 nm. The data was acquired and processed with LabSolutions version 5.92. HPLC chromatograms for TRBP-6 are shown in FIG. 10, namely (A) PDA Chromatogram, and (B) PDA Spectrum. FIG. 10(A) is a RP-HPLC chromatogram of TRBP-6 (retention time tR=4.904 min) obtained by above HPLC method to illustrate the purity of the synthesized TRBP-6. FIG. 10(B) is a plot of UV absorbance spectrum of TRBP-6 obtained from injecting TRBP-6 into the HPLC column to show the wavelength of maximum UV absorbance of TRBP-6 (λmax=216 nm). Stability in PBS pH 7.4.
TRBP-6 peptoid solution with a concentration of 5 mg/ml in PBS was diluted to 1.4 mg/ml by human plasma. After incubation at 37° C. in human plasma for 0, 1, 3, 6, 9 and 24 h, 50 μl of the mixture was quenched with 150 μl of cold acetonitrile and centrifuged at […]×20 min. The supernatant (100 μl) was detected by HPLC. The assay was performed in triplicates.

[2] = In vivo biodistribution study of Cy5.5-labeled peptoids in CD-1 mice (IVIS imaging)
Description: The activity of these compounds to deliver Cy5.5 fluorescent dye into the brains of mice was investigated. […] The Cy5.5 labeled peptoids or Cy5.5-Ang peptide were injected intravenously to CD-1 mice (25 nmol/mouse, n=4 per compound) and imaged using IVIS imager. The mice were sacrificed at 30 minutes, the heart was perfused with 10 mL of PBS, blood and organs were collected for ex vivo imaging.
Biodistribution of Cy5.5-labeled peptoids and control Cy5.5-Ang was performed on healthy female CD-1 mice (6-8 weeks old, n=4 per group). Fluorescently labeled peptoids and Cy5.5-Ang were prepared in 100 μl saline (25 nmol of Cy5.5-TRBP in 100 μl saline per mouse) were injected intravenously via tail vein into mice. The whole body imaging of fluorescence signal was measured at 5, 15 and 30 min using the IVIS Spectrum in vivo imaging system (PerkinElmer). At 30 min, mice were euthanized and brain was perfused with 10 mL of 10% heparinized PBS at […] flow rate via left ventricle of mice. A small incision to the right atrium was made using iris scissors before perfusion. After brain perfusion, the vital organs (brain, heart, lung, liver, spleen also blood and plasma) were collected for ex vivo imaging. The fluorescence intensity was measured at wavelength with an excitation of 660 nm and maximum emission at 710 nm. The organ region of interest (ROI) was measured and analyzed using Living image software. Data of the experiments were expressed as mean±SD and analyzed by One-way ANOVA with Dunnett's multiple comparison test. The statistical analysis was done in Graphpad Prism (Graphpad Inc., version 7.04), the results were considered statistically significant if p<0.05.

[3] = Stability in PBS pH 7.4 (HPLC); assay type: physicochemical; details: 37° C., 350 μg/ml
Description: as §1
TRBP-6 peptoid was diluted with PBS pH 7.4 to 350 μg/ml. The solution was incubated in the water bath at 37° C. with gentle shaking. The aliquots (50 μl) were withdrawn from the TRBP-6 solution at different time intervals (0, 1, 3, 6, 9, 24 h). At each time point, 10 μl of solution was injected into HPLC for analysis. To examine the reproducibility, the experiments were carried out in triplicate.

[4] = Solubility in water by titration; assay type: physicochemical; details: deionised water; DI water
Description: Solubility of TRBP-6 peptoid was determined by titration. Briefly, a precise amount (5 mg) of TRBP-6 was measured in a transparent 1.5 ml Eppendorf tube. DI water was added dropwise (˜5 μl/drop) into the tube until the solids were completely dissolved and the solution was clear. Solubility was calculated as the ratio of quantity of peptoid and the total volume of DI water. […] The solubility of TRBP6 in water is shown below.

[5] = tested on: transferrin receptor positive HeLa cells; experiment: Validation of on-bead two-color binding with resynthesized compound on TentaGel beads; assay type: cell-based, human; details: 1.0 hour at room temperature, fluorescence microscope
Description: The on-bead two-color combinatorial cell-screening was validated by resynthesizing the compounds on tentagel beads and incubating them with transferrin receptor positive HeLa cells and transferrin receptor negative Hela cells separately as well as a mixture of these cells. The beads specifically bound with the transferrin receptor positive HeLa cells. Results are shown in FIG. 3, with the cells shown on the left column and the beads containing TRBP6 after incubation with the cells shown in the right column.
Nearly 50,000 peptoid library beads were washed two times in DMEM medium containing 10% FBS (media) and then incubated in 1.0 ml (DMEM+10% FBS) for 1.0 hour in a polypropylene tube. Transferrin receptor positive HeLa cells and transferrin receptor negative HeLa cells were removed from culture plates with GIBCO enzyme free cell dissociation buffer 2.0 ml per plate for 20 minutes at 37° C. Cells were washed and suspended in DMEM+10% FBS media. Cells were counted and distributed in 1.5 ml microcentrifuge tubes with 1.0×10^6 cells in 1.0 ml of media. Then the cell labeling procedure was conducted as follows: 1.0 μl each of Qtracker reagent A and B were mixed in a 1.5 ml microcentrifuged tubes and incubated for 5.0 minutes at room temperature. […] Labeled cells were visualized with long-pass filter of BX-51 fluorescence microscope (Olympus, PA) with a color camera. […]

T1 sequence (P02786 whole entry): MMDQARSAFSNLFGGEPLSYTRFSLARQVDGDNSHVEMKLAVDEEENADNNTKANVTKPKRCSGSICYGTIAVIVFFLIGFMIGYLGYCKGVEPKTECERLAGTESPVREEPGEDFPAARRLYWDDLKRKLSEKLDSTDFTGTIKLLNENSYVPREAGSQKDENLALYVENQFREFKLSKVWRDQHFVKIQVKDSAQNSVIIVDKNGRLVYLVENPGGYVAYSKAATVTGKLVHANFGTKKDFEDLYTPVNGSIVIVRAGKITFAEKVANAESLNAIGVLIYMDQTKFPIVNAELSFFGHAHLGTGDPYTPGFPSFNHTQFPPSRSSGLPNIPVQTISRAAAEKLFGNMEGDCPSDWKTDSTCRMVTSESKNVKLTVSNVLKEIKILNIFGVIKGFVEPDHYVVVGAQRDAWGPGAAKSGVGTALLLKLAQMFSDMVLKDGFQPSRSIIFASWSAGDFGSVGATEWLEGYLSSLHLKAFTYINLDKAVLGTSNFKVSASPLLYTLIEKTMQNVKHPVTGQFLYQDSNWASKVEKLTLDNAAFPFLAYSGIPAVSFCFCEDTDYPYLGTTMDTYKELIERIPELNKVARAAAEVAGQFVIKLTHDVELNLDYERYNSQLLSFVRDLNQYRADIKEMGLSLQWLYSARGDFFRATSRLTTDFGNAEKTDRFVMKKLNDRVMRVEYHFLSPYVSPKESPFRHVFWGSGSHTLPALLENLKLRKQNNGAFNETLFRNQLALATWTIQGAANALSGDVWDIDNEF

COCCN(CC(=O)NC(CCCCN)C(=O)NC(CCSC)C(N)=O)C(=O)CN(CC(C)C)C(=O)CN(C(=O)CN(CCCCN)C(=O)CN(CCCOC(C)C)C(=O)CNCCCCN)C(C)c1ccccc1 (stereo not shown) [TRBP6] (H-[Nlys][N((CH2)3OiPr)Gly][Nlys][X1][Nleu][Nme]KM-NH2; configuration not given here)
binding to the transferrin receptor in pull-down assay (transferrin receptor): confirmed | TRBP-6 amount remains (%) in human plasma ([1]; 0 h, 1.4 mg/ml): 100.0 ± 1.2% | stability (overall statement) ([1]; PBS pH 7.4 and human plasma, up to 24 h): excellent stability | remaining at 1 h, 1.4 mg/ml ([1]; human, human plasma, 1 h, 1.4 mg/ml, read-out: TRBP-6 amount remains (%) in human plasma): 99.5 ± 3.5% | remaining at 3 h, 1.4 mg/ml ([1]; human, human plasma, 3 h, 1.4 mg/ml, read-out: TRBP-6 amount remains (%) in human plasma): 94 ± 2.1% | remaining at 6 h, 1.4 mg/ml ([1]; human, human plasma, 6 h, 1.4 mg/ml, read-out: TRBP-6 amount remains (%) in human plasma): 93 ± 5.3% | remaining at 9 h, 1.4 mg/ml ([1]; human, human plasma, 9 h, 1.4 mg/ml, read-out: TRBP-6 amount remains (%) in human plasma): 92 ± 2.9% | remaining at 24 h, 1.4 mg/ml ([1]; human, human plasma, 24 h, 1.4 mg/ml, read-out: TRBP-6 amount remains (%) in human plasma): 90.3 ± 4.7% | efficacy of brain delivery compared with other compounds including Angiopep-2 (Ang) peptide ([2]; 25 nmol/mouse intravenously): much higher than other compounds | delivery of Cy5.5 into the brain ([2]; 25 nmol/mouse intravenously, imaging 5, 15, 30 min and ex vivo after perfusion): effectively delivered Cy5.5 into the brain | efficiency in brain delivery compared with other compounds including Ang peptide ([2]; 30 minutes after injection, 25 nmol/mouse i.v.): superior efficiency than other compounds | TRBP-6 amount remains (%) in PBS pH 7.4 ([3]; 0 h): 100.0 ± 2.4% | TRBP-6 amount remains (%) in PBS pH 7.4 ([3]; 1 h): 98.9 ± 6.5% | TRBP-6 amount remains (%) in PBS pH 7.4 ([3]; 3 h): 95.5 ± 3.3% | TRBP-6 amount remains (%) in PBS pH 7.4 ([3]; 6 h): 94.6 ± 2.3% | TRBP-6 amount remains (%) in PBS pH 7.4 ([3]; 9 h): 92.7 ± 0.2% | TRBP-6 amount remains (%) in PBS pH 7.4 ([3]; 24 h): 91.3 ± 3.8% | solubility [4]: > 496 mg/mL | binding of beads to transferrin receptor positive (red) vs negative (green) HeLa cells [5]: only showed binding with red cells but not with green cells
